Reference: patent publication US9149038B2, “4-amino-6-(heterocyclic)picolinates and 6-amino-2-(heterocyclic)pyrimidine-4-carboxylates and their use as herbicides” (Dow AgroSciences LLC, priority 2013, dated 2015)
Read-outs that look alike come from different tables or passages of the source.

Key:
[1] = system: Key Grass and Sedge Weeds as well as Grass Crops; test: Post-Emergent Test II: postemergent herbicidal activity, visual rating after 14 d (Table 8); assay type: in vivo; details: post-emergence, 336 h; for pest or weed control at 35 g/ha: 35 g ai/ha; for pest or weed control at 70 g/ha: 70 g ai/ha; for pest or weed control at 140 g/ha: 140 g ai/ha
In short: (§1)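 Greenhouse plants at first or second true leaf stage sprayed with compound in acetone/DMSO-based spray solution with crop oil concentrate and Triton X-155 at 187 L/ha, tested at highest rate and ½× to 1/16× dilutions; solvent blank controls. Injury rated visually 0–100% versus untreated plants after 14 d.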

[2] = system: Key Broadleaf Weed and Crop Species; test: Post-Emergent Test II: postemergent herbicidal activity, visual rating after 14 d (Table 7); assay type: in vivo; details: post-emergence, 336 h; for pest or weed control at 35 g/ha: 35 g ai/ha; for pest or weed control at 70 g/ha: 70 g ai/ha; for pest or weed control at 140 g/ha: 140 g ai/ha
In short: as §1

[3] = barnyardgrass (Echinochloa crus-galli), read-out: Visual Growth Reduction (%) 14 Days After Application, ECHCG
[4] = giant foxtail (Setaria faberi), read-out: Visual Growth Reduction (%) 14 Days After Application, SETFA
[5] = maize, corn (Zea mays), read-out: Visual Growth Reduction (%) 14 Days After Application, ZEAMX
[6] = rice (Oryza sativa), read-out: Visual Growth Reduction (%) 14 Days After Application, ORYSA
[7] = wheat, spring (Triticum aestivum), read-out: Visual Growth Reduction (%) 14 Days After Application, TRZAS
[8] = yellow nutsedge (Cyperus esculentus), read-out: Visual Growth Reduction (%) 14 Days After Application, CYPES
[9] = ABUTH: velvetleaf (Abutilon theophrasti), read-out: Visual Growth Reduction (%) 14 Days After Application ABUTH
[10] = AMARE: redroot pigweed (Amaranthus retroflexus), read-out: Visual Growth Reduction (%) 14 Days After Application AMARE
[11] = BRSNN: oilseed rape, canola (Brassica napus), read-out: Visual Growth Reduction (%) 14 Days After Application BRSNN
[12] = CHEAL: lambsquarters (Chenopodium album), read-out: Visual Growth Reduction (%) 14 Days After Application CHEAL
[13] = EPHHL: wild poinsettia (Euphorbia heterophylla), read-out: Visual Growth Reduction (%) 14 Days After Application EPHHL
[14] = HELAN: sunflower (Helianthus annuus), read-out: Visual Growth Reduction (%) 14 Days After Application HELAN

COC(=O)c1nc(-c2ccc(Cl)c3c2OC(F)(F)O3)cc(N)c1Cl [Compound 86]
60 to 74%: pest or weed control at 35 g/ha [1, 8] | pest or weed control at 70 g/ha [1, 8] | pest or weed control at 140 g/ha [1, 8]
0 to 29%: pest or weed control at 35 g/ha [1, 3] | pest or weed control at 70 g/ha [1, 3] | pest or weed control at 140 g/ha [1, 3] | pest or weed control at 35 g/ha [1, 4] | pest or weed control at 70 g/ha [1, 4] | pest or weed control at 140 g/ha [1, 4] | pest or weed control at 35 g/ha [1, 6] | pest or weed control at 70 g/ha [1, 6] | pest or weed control at 140 g/ha [1, 6] | pest or weed control at 35 g/ha [1, 7] | pest or weed control at 70 g/ha [1, 7] | pest or weed control at 140 g/ha [1, 7] | pest or weed control at 35 g/ha [2, 13] | pest or weed control at 70 g/ha [2, 13] | pest or weed control at 140 g/ha [2, 13]
75 to 84%: pest or weed control at 35 g/ha [2, 9] | pest or weed control at 35 g/ha [2, 11] | pest or weed control at 70 g/ha [2, 11] | pest or weed control at 35 g/ha [2, 14]
95 to 100%: pest or weed control at 140 g/ha [1, 5] | pest or weed control at 35 g/ha [2, 10] | pest or weed control at 70 g/ha [2, 10] | pest or weed control at 140 g/ha [2, 10] | pest or weed control at 35 g/ha [2, 12] | pest or weed control at 70 g/ha [2, 12] | pest or weed control at 140 g/ha [2, 12]
85 to 94%: pest or weed control at 35 g/ha [1, 5] | pest or weed control at 70 g/ha [1, 5] | pest or weed control at 70 g/ha [2, 9] | pest or weed control at 140 g/ha [2, 9] | pest or weed control at 140 g/ha [2, 11] | pest or weed control at 70 g/ha [2, 14] | pest or weed control at 140 g/ha [2, 14]
